This is an account of results in patent US10328082B2, “Methods of use and combinations” (Pfizer Inc., priority 2014, dated 2019).

One may read the EC50 as the concentration at which the effect is half-maximal. A low value points to a more potent agent.

The target of data set [1] is T1, human Androgen Receptor (AR) (Homo sapiens, UniProt P10275).
T1 construct: transiently transfected in T225 cm^2 flasks with a full length human Androgen Receptor (AR) cDNA; expressed in transfected cells; host or cells: CV-1 cells (ATCC CCL-70), transiently transfected
T1 sequence (P10275 1-920): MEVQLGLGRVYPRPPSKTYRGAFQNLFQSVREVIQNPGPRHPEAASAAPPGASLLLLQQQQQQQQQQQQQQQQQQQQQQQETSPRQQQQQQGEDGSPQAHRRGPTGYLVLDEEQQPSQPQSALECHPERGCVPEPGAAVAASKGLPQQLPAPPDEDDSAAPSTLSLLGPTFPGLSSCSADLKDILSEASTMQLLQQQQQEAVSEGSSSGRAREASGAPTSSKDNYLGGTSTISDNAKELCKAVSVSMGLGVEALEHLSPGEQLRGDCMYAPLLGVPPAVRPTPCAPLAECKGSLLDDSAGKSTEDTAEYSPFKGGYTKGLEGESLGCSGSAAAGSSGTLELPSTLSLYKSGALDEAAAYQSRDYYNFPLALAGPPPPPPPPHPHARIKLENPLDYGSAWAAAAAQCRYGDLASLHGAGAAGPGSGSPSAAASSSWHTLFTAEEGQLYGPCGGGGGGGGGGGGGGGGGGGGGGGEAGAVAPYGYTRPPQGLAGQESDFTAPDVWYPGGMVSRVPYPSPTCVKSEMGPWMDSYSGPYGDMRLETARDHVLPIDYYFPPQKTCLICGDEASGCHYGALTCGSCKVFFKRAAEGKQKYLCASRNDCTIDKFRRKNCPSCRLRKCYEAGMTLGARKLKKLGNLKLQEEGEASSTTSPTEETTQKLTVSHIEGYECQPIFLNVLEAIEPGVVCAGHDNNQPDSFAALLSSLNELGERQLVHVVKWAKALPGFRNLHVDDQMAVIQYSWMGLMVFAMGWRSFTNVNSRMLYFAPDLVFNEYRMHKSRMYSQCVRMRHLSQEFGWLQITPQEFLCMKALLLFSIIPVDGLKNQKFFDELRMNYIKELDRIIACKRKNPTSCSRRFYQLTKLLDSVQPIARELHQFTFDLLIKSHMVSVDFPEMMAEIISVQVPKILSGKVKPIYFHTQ
Briefly: Androgen Receptor-Mediated Transcriptional Assay. It counts as cell-based. The conditions noted are these: CV-1 cells transiently transfected with full length human AR and ARE-luciferase, 16-18 hours incubation. The procedure: Androgen Receptor-Mediated Transcriptional Assay Summary
CV-1 cells (American Tissue Culture Collection cat# CCL-70) were expanded in Growth Media and transiently transfected in T225 cm^2 flasks with a full length human Androgen Receptor (AR) cDNA in the pcDNA3 expression vector and a human Androgen Response Element (ARE)-luciferase cDNA in the pGL3 vector (both from Invitrogen). DNA (μg) and Lipofectamine (μl) at a ratio of 1:3 were incubated with the cells in a total volume of 55 mL Basal Media for 4 hours. Cells were harvested by trypsinization and frozen back (−150° C. cryomed) at a concentration of 4.3 million cells/mL.
On the day of the assay, frozen cells were thawed and re-suspended in Re-suspension Media and plated at 40,000 cells/well (in 100 μL volume) in 96 well white plates and were incubated for at least 4 h at 37° C., 5% CO2. After incubation, cells were treated with the compounds to be screened. 10 mM stocks of the compounds were serially diluted 1:10 in 100% DMSO followed by an additional 1:100 dilution in Assay Media. These dilution series were added to the cell plates resulting in a further 1:10 dilution and a final % DMSO of 0.1%. The vehicle control wells also contained this dilution of DMSO and the positive control wells contained […] (DHT) as an AR agonist at final concentration of 0.3 nM in 0.1% DMSO. Cells were incubated for 16-18 hours at 37° C. and 5% CO2. Then the culture media was removed from and the cells were lysed in 20 μL of cell lysis reagent for 5 minutes at room temperature. 50 μL of luciferase reagent was added to each well and luminescence, over 5 seconds, was measured.
EC50 (half maximal effective concentration) was calculated from concentration series plots which generated sigmoidal curves. Xlfit software was used to plot the best fit of the % effect vs concentration and to calculate the EC50.

A short description of data set [2]: DSC profile of the crystalline form. It counts as physicochemical. Particulars: demonstrated by the high DSC melting point and DSC profile. The procedure: DSC measurements were performed with a Discovery DSC (TA instruments) equipped with a refrigerated cooling accessory. Approximately 2-5 mg of solid sample was weighed into a standard/Tzero aluminum pan and non-hermetically sealed. The sample was placed in a cell with continuous dry nitrogen purge (50 mL/min) and heated from 25° C. to 250° C. at 10° C./min heating rate. The cell constant was determined using indium and temperature calibration was performed using indium and tin as standards. The experimental data were analyzed using commercially available software (TA Universal Analysis 2000/Trios software, TA Instruments).
The characterization data disclosed herein confirms the crystalline nature of the 6-[(4R)-4-methyl-1,1-dioxido-1,2,6-thiadiazinan-2-yl]isoquinoline-1-carbonitrile free base Form (1) material and, as such, that it is a useful form for pharmaceutical development. For example, crystalline materials are generally considered to be an advantageous form for drug substance manufacturing because, for example, they are more easily purified, can be prepared with higher yields, have improved filtration and drying characteristics and improved flow and handling characteristics.

In data set [1] (Compounds 1-22), “6-[(4S)-4-(3-methylphenyl)-1,1-dioxido-1,2,6-thiadiazinan-2-yl]isoquinoline-1-carbonitrile [Compound 20]” came in with an EC50 of 8 nM.

In the case of “6-[(4S)-4-ethyl-1,1-dioxido-1,2,6-thiadiazinan-2-yl]isoquinoline-1-carbonitrile [Compound 21]”, it took 8 nM to reach a half-maximal effect in data set [1] (Compounds 1-22) (EC50).

In turn, “6-{(2R,5R)-2-[(1R)-1-hydroxyethyl]-5-methylpyrrolidin-1-yl}isoquinoline-1-carbonitrile [Compound 31]” showed an EC50 in data set [1] (Compounds 23-39) of 474 nM.

With `C[C@@H]1CNS(=O)(=O)N(c2ccc3c(C#N)nccc3c2)C1` [6-[(4R)-4-methyl-1,1-dioxido-1,2,6-thiadiazinan-2-yl]isoquinoline-1-carbonitrile], in data set [2], the hygroscopic nature result was “non-hygroscopic” and the thermal stability entry is “thermal stability”.

In data set [1] (Compounds 1-22), `C[C@H]1CN(C)S(=O)(=O)N1c1ccc2c(C#N)nccc2c1` [Compound 5] showed an EC50 of 5 nM.
